Laboratory results as given in ChEMBL document CHEMBL1201862, “PubChem BioAssay data set” (2004).
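Where inhibition never reached the appropriate level, the endpoint shown equals the highest concentration tested. Otherwise, values were interpolated linearly from a five-concentration, 48-hour dose response in 96-well plates. GI50 is the concentration that inhibits growth by half.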 Activity calls are given as the source filed them. Cut-off read from the data, not from the text of the source: active = GI50 up to about 1.1 µM and inactive = higher.

Tests used:
Assay in all cases: NCI tumour cell line growth inhibition, 48 h
NCI-H522 = system: NCI-H522
ACHN = system: ACHN
OVCAR-8 = system: OVCAR-8
M14 = system: M14
MDA-MB-435 = system: MDA-MB-435
K562 = system: K562
A498 = system: A498
SF-539 = system: SF-539
EKVX = system: EKVX
MCF7 = system: MCF7
SF-295 = system: SF-295
RPMI-8226 = system: RPMI-8226
OVCAR-4 = system: OVCAR-4
NCI/ADR-RES = system: NCI/ADR-RES
T47D = system: T47D
PC-3 = system: PC-3
SN12C = system: SN12C
Hs-578T = system: Hs-578T
SK-OV-3 = system: SK-OV-3

Measured: GI50

O=C(O)CO/N=C1/C(=C2/C(=O)Nc3ccccc32)Nc2ccccc21
inactive: NCI-H522 52.6 µM | ACHN > 100 µM | OVCAR-8 > 100 µM | M14 41.1 µM | MDA-MB-435 37.9 µM | K562 79.8 µM | A498 61.8 µM | SF-539 70.3 µM | EKVX 24.9 µM | MCF7 36 µM | SF-295 89.9 µM | RPMI-8226 > 100 µM | OVCAR-4 48.5 µM | NCI/ADR-RES > 100 µM | T47D 35.8 µM | PC-3 33.9 µM | SN12C 88.3 µM | Hs-578T 29.6 µM | SK-OV-3 22.4 µM

COc1cc2c(cc1OC)-c1cc3cc(OC)c(OC)cc3c(=O)n1CC2
inactive: NCI-H522 2.76 µM | ACHN 14.4 µM | OVCAR-8 41.9 µM | M14 27 µM | MDA-MB-435 31.6 µM | K562 10.4 µM | A498 7.59 µM | SF-539 6.12 µM | EKVX 28.8 µM | MCF7 5.89 µM | SF-295 11.5 µM | RPMI-8226 3.16 µM | OVCAR-4 30.3 µM | NCI/ADR-RES 21.7 µM | T47D 2.58 µM | PC-3 21.2 µM | SN12C 14.6 µM | Hs-578T 6 µM | SK-OV-3 14.1 µM

COC(=O)/C(C#N)=C(\Nc1ccccc1)N1CCCC1
inactive: NCI-H522 > 100 µM | ACHN > 100 µM | OVCAR-8 > 100 µM | M14 > 100 µM | MDA-MB-435 > 100 µM | K562 > 100 µM | A498 > 100 µM | SF-539 > 100 µM | EKVX > 100 µM | MCF7 > 100 µM | SF-295 > 100 µM | RPMI-8226 > 100 µM | OVCAR-4 > 100 µM | NCI/ADR-RES > 100 µM | T47D > 100 µM | PC-3 > 100 µM | SN12C > 100 µM | Hs-578T > 100 µM | SK-OV-3 > 100 µM

COc1ccc(-n2cnc3c(NCC(=O)O)ncnc32)cc1
inactive: NCI-H522 > 100 µM | ACHN > 100 µM | OVCAR-8 > 100 µM | M14 > 100 µM | MDA-MB-435 > 100 µM | K562 > 100 µM | A498 > 100 µM | EKVX > 100 µM | MCF7 > 100 µM | SF-295 > 100 µM | RPMI-8226 > 100 µM | OVCAR-4 > 100 µM | NCI/ADR-RES > 100 µM | T47D > 100 µM | PC-3 > 100 µM | SN12C > 100 µM | Hs-578T > 100 µM | SK-OV-3 > 100 µM

O=C(C1OC1c1ccc(Br)cc1O)C12CC3CC(CC(C3)C1)C2 (centres undefined)
inactive: NCI-H522 18.8 µM | ACHN 33.9 µM | OVCAR-8 20.5 µM | M14 18.1 µM | MDA-MB-435 13.8 µM | K562 15.4 µM | A498 97.3 µM | SF-539 95.1 µM | EKVX > 100 µM | MCF7 22.3 µM | SF-295 17.9 µM | RPMI-8226 17.8 µM | OVCAR-4 26.2 µM | NCI/ADR-RES 30 µM | T47D 40.8 µM | PC-3 23.6 µM | SN12C 15.6 µM | Hs-578T 15.7 µM

CCOC1OC(CO)C(O)CC1n1ccc(=O)[nH]c1=O (centres undefined)
inactive: NCI-H522 30.3 µM | ACHN > 100 µM | OVCAR-8 > 100 µM | M14 > 100 µM | MDA-MB-435 > 100 µM | K562 > 100 µM | A498 > 100 µM | SF-539 > 100 µM | EKVX > 100 µM | MCF7 > 100 µM | SF-295 > 100 µM | RPMI-8226 > 100 µM | OVCAR-4 > 100 µM | NCI/ADR-RES > 100 µM | T47D > 100 µM | PC-3 > 100 µM | SN12C > 100 µM | Hs-578T > 100 µM

CCCCCCCCCCCCCC(=O)OCC(CCS(=O)(=O)O[C@H]1CC[C@@]2(C)C(=CC[C@@H]3C2CC[C@]2(C)C(=O)CCC32)C1)OC(=O)CCCCCCCCCCCCC (some centres undefined)
inactive: ACHN > 100 µM | M14 > 100 µM | MDA-MB-435 > 100 µM | K562 > 100 µM | A498 > 100 µM | SF-539 > 100 µM | EKVX > 100 µM | MCF7 > 100 µM | SF-295 > 100 µM | RPMI-8226 > 100 µM | OVCAR-4 > 100 µM | NCI/ADR-RES > 100 µM | T47D > 100 µM | PC-3 > 100 µM | SN12C > 100 µM | Hs-578T > 100 µM | SK-OV-3 > 100 µM

O=C(Nc1c(C(F)(F)F)cc(-c2ccccc2)[nH]c1=O)N1CCOCC1
inactive: NCI-H522 89.1 µM | ACHN > 100 µM | OVCAR-8 > 100 µM | M14 > 100 µM | MDA-MB-435 > 100 µM | K562 > 100 µM | A498 > 100 µM | EKVX 40.2 µM | MCF7 > 100 µM | SF-295 62.1 µM | RPMI-8226 26.9 µM | OVCAR-4 47.8 µM | NCI/ADR-RES > 100 µM | T47D > 100 µM | PC-3 > 100 µM | SN12C > 100 µM | Hs-578T > 100 µM | SK-OV-3 > 100 µM

O=C(O)CNC(=O)c1ccc([As](=O)(O)O)cc1
inactive: NCI-H522 > 100 µM | ACHN > 100 µM | OVCAR-8 > 100 µM | M14 > 100 µM | MDA-MB-435 > 100 µM | K562 > 100 µM | A498 > 100 µM | EKVX > 100 µM | MCF7 > 100 µM | SF-295 > 100 µM | RPMI-8226 > 100 µM | OVCAR-4 > 100 µM | NCI/ADR-RES > 100 µM | T47D > 100 µM | PC-3 > 100 µM | SN12C > 100 µM | Hs-578T > 100 µM | SK-OV-3 > 100 µM

CC(C)(C)OC(=O)NC1CC=CCC1NC(=O)OC(C)(C)C (centres undefined)
inactive: NCI-H522 > 100 µM | ACHN > 100 µM | OVCAR-8 > 100 µM | M14 > 100 µM | MDA-MB-435 > 100 µM | K562 97.9 µM | A498 > 100 µM | SF-539 > 100 µM | MCF7 > 100 µM | SF-295 > 100 µM | RPMI-8226 > 100 µM | OVCAR-4 > 100 µM | NCI/ADR-RES > 100 µM | T47D > 100 µM | PC-3 > 100 µM | SN12C > 100 µM | Hs-578T > 100 µM | SK-OV-3 > 100 µM

COc1cc(NS(C)(=O)=O)ccc1Nc1ccnc2ccc3[nH]ccc3c12
inactive: NCI-H522 5.6 µM | ACHN 18.4 µM | OVCAR-8 13.6 µM | M14 16.4 µM | MDA-MB-435 15.6 µM | K562 10.9 µM | A498 16.8 µM | EKVX 19.4 µM | MCF7 15.6 µM | SF-295 18.2 µM | RPMI-8226 15 µM | OVCAR-4 14.3 µM | NCI/ADR-RES > 100 µM | T47D 14.9 µM | PC-3 13.1 µM | SN12C 14.4 µM | Hs-578T 21.3 µM
